Key:
[1] = tested on: Mycobacterium tuberculosis Erdman (autoluminescent); assay: total FIC50 (Loewe) at 50% inhibition, three-drug combination (log2); higher = more antagonistic
Protocol: (§1)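 DiaMOND equipotent three-drug combination dose responses (10 doses, 1.5- or 2-fold spacing, centred on IC90) against autoluminescent M. tuberculosis Erdman in 8 in vitro models. Read-out is OD600, or luminescence for the intracellular and dormancy models, normalised to untreated wells. Hill-fit Einf, AUC25 and GRinf are potency metrics; FIC50 and FIC90 are total Loewe fractional inhibitory concentrations as log2 (negative = synergy).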

[2] = tested on: Mycobacterium tuberculosis Erdman (autoluminescent); assay: total FIC90 (Loewe) at 90% inhibition, three-drug combination (log2); higher = more antagonistic
Protocol: as §1

[3] = tested on: Mycobacterium tuberculosis Erdman (autoluminescent); assay: AUC25, normalised area under dose response up to IC25 (three-drug combination) (fraction (0-1)); higher = more potent at low dose
Protocol: as §1

[4] = tested on: Mycobacterium tuberculosis Erdman (autoluminescent); assay: Einf, fitted maximum growth inhibition of three-drug combination (fraction); higher = stronger maximal inhibition
Protocol: as §1

[5] = tested on: Mycobacterium tuberculosis Erdman (autoluminescent); assay: GRinf, maximum normalised growth rate inhibition (three-drug combination) (unitless (-1 to 1)); higher = less effect (negative = killing)
Protocol: as §1

CC(=O)NC[C@H]1CN(c2ccc(N3CCOCC3)c(F)c2)C(=O)O1 [linezolid] + COc1c(N2C[C@@H]3CCCN[C@@H]3C2)c(F)cc2c(=O)c(C(=O)O)cn(C3CC3)c12 [moxifloxacin] + O=[N+]([O-])c1cn2c(n1)OC[C@@H](OCc1ccc(OC(F)(F)F)cc1)C2 [pretomanid]
Settings	AUC25, [3]	Einf, [4]	GRinf, [5]	total FIC50, [1]	total FIC90, [2]
in vitro model: acidic pH 5.7, time point: constant (~7 days, model-specific)	0.113	0.883	-0.748	0.776	–
in vitro model: acidic pH 5.7, time point: terminal (~4-5 doublings, model-specific)	0.0579	0.945	-0.404	1.08	0.694
in vitro model: intracellular J774, time point: constant = terminal	–	0.954	-0.659	–	1.38

Settings	AUC25, [3]	Einf, [4]	GRinf, [5]	total FIC50, [1]	total FIC90, [2]
in vitro model: butyrate, time point: constant (~7 days, model-specific)	0.0971	0.916	0.0148	0.594	0.801
in vitro model: butyrate, time point: terminal (~4-5 doublings, model-specific)	0.0695	0.953	0.0166	0.499	0.736
in vitro model: cholesterol 0.05 mM, time point: constant (~7 days, model-specific)	0.14	0.692	-0.183	0.0017	–
in vitro model: cholesterol 0.05 mM, time point: terminal (~4-5 doublings, model-specific)	0.134	0.908	-0.206	0.534	0.307
in vitro model: cholesterol-high 0.2 mM, time point: constant (~7 days, model-specific)	0.121	0.923	-0.45	0.187	1.91
in vitro model: cholesterol-high 0.2 mM, time point: terminal (~4-5 doublings, model-specific)	0.117	0.989	-0.722	0.117	0.839
in vitro model: dormancy (butyrate + nitrate, low O2), time point: constant (~7 days, model-specific)	0.0437	0.879	0.219	0.988	0.456
in vitro model: dormancy (butyrate + nitrate, low O2), time point: terminal (~4-5 doublings, model-specific)	0.0489	0.979	-0.165	1.01	0.983
in vitro model: standard 7H9 glycerol, time point: constant = terminal	0.0706	0.962	-0.151	0.466	0.766
in vitro model: valerate, time point: constant (~7 days, model-specific)	0.138	0.861	-0.229	-0.643	–
in vitro model: valerate, time point: terminal (~4-5 doublings, model-specific)	0.0994	0.918	-0.0505	-0.495	0.791

CC(=O)NC[C@H]1CN(c2ccc(N3CCOCC3)c(F)c2)C(=O)O1 [linezolid] + NC(=O)c1cnccn1 [pyrazinamide] + CO[C@H]1/C=C/O[C@@]2(C)Oc3c(C)c(O)c4c(O)c(c(/C=N/N5CCN(C6CCCC6)CC5)c(O)c4c3C2=O)NC(=O)/C(C)=C\C=C\[C@H](C)[C@H](O)[C@@H](C)[C@@H](O)[C@@H](C)[C@H](OC(C)=O)[C@@H]1C [rifapentine]
Settings	AUC25, [3]	Einf, [4]	GRinf, [5]	total FIC50, [1]	total FIC90, [2]
in vitro model: acidic pH 5.7, time point: constant (~7 days, model-specific)	0.105	0.91	-0.206	0.0539	–
in vitro model: acidic pH 5.7, time point: terminal (~4-5 doublings, model-specific)	0.0872	0.992	-0.258	-0.0159	–
in vitro model: intracellular J774, time point: constant = terminal	–	0.947	-0.174	–	-0.0473

Settings	AUC25, [3]	Einf, [4]	GRinf, [5]	total FIC50, [1]	total FIC90, [2]
in vitro model: butyrate, time point: constant (~7 days, model-specific)	0.0966	0.892	0.08	-0.0866	–
in vitro model: butyrate, time point: terminal (~4-5 doublings, model-specific)	0.0673	0.94	0.0873	0.038	-0.132
in vitro model: cholesterol 0.05 mM, time point: constant (~7 days, model-specific)	0.143	0.758	-0.43	–	–
in vitro model: cholesterol 0.05 mM, time point: terminal (~4-5 doublings, model-specific)	0.139	0.938	-0.446	0.219	–
in vitro model: cholesterol-high 0.2 mM, time point: constant (~7 days, model-specific)	0.112	0.952	-0.497	0.301	–
in vitro model: cholesterol-high 0.2 mM, time point: terminal (~4-5 doublings, model-specific)	0.0909	1	-0.945	0.319	-0.0261
in vitro model: dormancy (butyrate + nitrate, low O2), time point: constant (~7 days, model-specific)	0.0577	0.867	0.245	0.405	0.766
in vitro model: dormancy (butyrate + nitrate, low O2), time point: terminal (~4-5 doublings, model-specific)	0.0343	0.976	-0.12	0.486	0.153
in vitro model: standard 7H9 glycerol, time point: constant = terminal	0.0547	0.876	0.183	0.187	–
in vitro model: valerate, time point: constant (~7 days, model-specific)	0.0698	0.865	0.0833	-0.277	–
in vitro model: valerate, time point: terminal (~4-5 doublings, model-specific)	0.0324	0.921	0.0692	-0.0139	-0.406

CC(=O)NC[C@H]1CN(c2ccc(N3CCOCC3)c(F)c2)C(=O)O1 [linezolid] + NC(=O)c1cnccn1 [pyrazinamide] + CO[C@H]1/C=C/O[C@@]2(C)Oc3c(C)c(O)c4c(O)c(c(/C=N/N5CCN(C)CC5)c(O)c4c3C2=O)NC(=O)/C(C)=C\C=C\[C@H](C)[C@H](O)[C@@H](C)[C@@H](O)[C@@H](C)[C@H](OC(C)=O)[C@@H]1C [rifampicin]
Settings	AUC25, [3]	Einf, [4]	GRinf, [5]	total FIC50, [1]	total FIC90, [2]
in vitro model: acidic pH 5.7, time point: constant (~7 days, model-specific)	0.0897	0.883	-0.255	0.175	–
in vitro model: acidic pH 5.7, time point: terminal (~4-5 doublings, model-specific)	0.0731	0.986	-0.249	0.189	–
in vitro model: intracellular J774, time point: constant = terminal	–	0.953	-0.411	–	-0.0717

Settings	AUC25, [3]	Einf, [4]	GRinf, [5]	total FIC50, [1]	total FIC90, [2]
in vitro model: butyrate, time point: constant (~7 days, model-specific)	0.0912	0.889	0.0887	-0.0235	0.328
in vitro model: butyrate, time point: terminal (~4-5 doublings, model-specific)	0.075	0.94	0.0909	-0.114	-0.413
in vitro model: cholesterol 0.05 mM, time point: constant (~7 days, model-specific)	0.141	0.702	-0.117	–	–
in vitro model: cholesterol 0.05 mM, time point: terminal (~4-5 doublings, model-specific)	0.127	0.929	-0.289	0.713	–
in vitro model: cholesterol-high 0.2 mM, time point: constant (~7 days, model-specific)	0.116	0.926	-0.72	0.321	–
in vitro model: cholesterol-high 0.2 mM, time point: terminal (~4-5 doublings, model-specific)	0.104	0.995	-0.826	0.598	0.554
in vitro model: dormancy (butyrate + nitrate, low O2), time point: constant (~7 days, model-specific)	0.0758	0.893	0.203	0.486	0.378
in vitro model: dormancy (butyrate + nitrate, low O2), time point: terminal (~4-5 doublings, model-specific)	0.0314	0.972	-0.277	0.208	-0.126
in vitro model: standard 7H9 glycerol, time point: constant = terminal	0.0779	0.908	0.119	-0.168	–
in vitro model: valerate, time point: constant (~7 days, model-specific)	0.0571	0.853	0.1	0.122	–
in vitro model: valerate, time point: terminal (~4-5 doublings, model-specific)	0.0305	0.925	0.0656	0.211	-0.35

Reference: the supplement of paper PMC8617591
